The results in this text go back to patent publication US20260241039A1, “FLUORESCENT PROBES FOR MAGL” (Hoffmann-La Roche Inc., priority 2022, published 2026).

The target of the experiment is T1, hMAGL (Homo sapiens, UniProt Q99685).
T1 sequence (Q99685 1-303): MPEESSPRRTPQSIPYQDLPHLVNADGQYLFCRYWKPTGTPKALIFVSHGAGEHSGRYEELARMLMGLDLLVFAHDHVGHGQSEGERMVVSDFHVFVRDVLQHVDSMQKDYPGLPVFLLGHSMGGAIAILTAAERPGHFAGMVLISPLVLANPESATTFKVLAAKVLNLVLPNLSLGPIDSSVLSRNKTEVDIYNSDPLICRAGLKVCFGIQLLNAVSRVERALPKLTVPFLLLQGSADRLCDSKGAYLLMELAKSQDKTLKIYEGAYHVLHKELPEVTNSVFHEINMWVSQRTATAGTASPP
Nature of the experiment: 2-AG assay: MAGL inhibitory activity, hydrolysis of 2-arachidonoylglycerol to arachidonic acid followed by mass spectrometry. In kind it is biochemical. Conditions: 15 min pre-incubation at RT, 30 min reaction at RT, 8 μM 2-arachidonoylglycerol. On the procedure: Compounds were profiled for MAGL inhibitory activity by determining the enzymatic activity by following the hydrolysis of the natural substrate 2-arachidonoylglycerol (2-AG) resulting in arachidonic acid, which can be followed by mass spectrometry. This assay is hereinafter abbreviated “2-AG assay”.
The 2-AG assay was carried out in 384 well assay plates (PP, Greiner Cat #784201) in a total volume of 20 μL. Compound dilutions were made in 100% DMSO (VWR Chemicals 23500.297) in a polypropylene plate in 3-fold dilution steps to give a final concentration range in the assay from 12.5 μM to […]. 0.25 μL compound dilutions (100% DMSO) were added to 9 μL MAGL in assay buffer (50 mM TRIS (GIBCO, 15567-027), 1 mM EDTA (Fluka, 03690-100 mL), 0.01% (v/v) Tween. After shaking, the plate was incubated for 15 min at RT. To start the reaction, 10 μL 2-arachidonoylglycerol in assay buffer was added. The final concentrations in the assay was […] and 8 μM 2-arachidonoylglyerol. After shaking and 30 min incubation at RT, the reaction was quenched by the addition of 40 μL of ACN containing 4 μM of d8-arachidonic acid. The amount of arachidonic acid was traced by an online SPE system (Agilent Rapidfire) coupled to a triple quadrupole mass spectrometer (Agilent 6460). A C18 SPE cartridge (G9205A) was used in an ACN/water liquid setup. The mass spectrometer was operated in negative electrospray mode following the mass transitions 303.1→259.1 for arachidonic acid and 311.1→267.0 for d8-arachidonic acid. The activity of the compounds was calculated based on the ratio of intensities [arachidonic acid/d8-arachidonic acid].
As for `O=C1CO[C@H]2CCN(C(=O)N3CC4(CC(CC5=C6C=CC=[N+]6[B-](F)(F)n6cccc65)C4)C3)C[C@H]2N1` [Example 16, (4aR,8aS)-6-(6-((5,5-difluoro-5H-4λ^4,5λ^4-dipyrrolo[1,2-c:2,1′-f][1,3,2]diazaborinin-10-yl)methyl)-2-azaspiro[3.3]heptane-2-carbonyl)hexahydro-2H-pyrido[4,3-b][1,4]oxazin-3(4H)-one], half-maximal inhibition (IC50) required 0.77 nM. The value for “2-(2-((5,5-difluoro-5H-4λ^4,5λ^4-dipyrrolo[1,2-c:2′,1′-f][1,3,2]diazaborinin-10-yl)oxy)-7-azaspiro[3.5]nonane-7-carbonyl)-7-oxa-2,5-diazaspiro[3.4]octan-6-one [Example 13]” was 3.99 nM; that for “(4aR,8aS)-6-(7-((5,5-difluoro-5H-4λ^4, 5λ^4-dipyrrolo[1,2-c:2,1′-f][1,3,2]diazaborinin-10-yl)methylene)-2-azaspiro[3.5]nonane-2-carbonyl)hexahydro-2H-pyrido[4,3-b][1, 4]oxazin-3(4H)-one [Example 18]” was 0.64 nM; that for “(4aR,8aS)-6-(4-((5,5-difluoro-5H-4λ^4, 5λ^4-dipyrrolo[1,2-c:2′,1′-f][1,3,2]diazaborinin-10-yl)oxy)piperidine-1-carbonyl)hexahydro-2H-pyrido[4,3-b][1,4]oxazin-3(4H)-one [Example 9]” was 6320 nM. For the molecule `O=C1CO[C@H]2CCN(C(=O)N3CC(COC4=C5C=CC=[N+]5[B-](F)(F)n5cccc54)C3)C[C@H]2N1` [Example 7, (4aR,8aS)-6-(3-(((5,5-difluoro-5H-4λ^4,5λ^4-dipyrrolo[1,2-c:2,1′-f][1,3,2]diazaborinin-10-yl)oxy)methyl)azetidine-1-carbonyl)hexahydro-2H-pyrido[4,3-b][1,4]oxazin-3(4H)-one], the IC50 was 2590 nM. On to “(4aR,8aS)-6-(7-((5,5-difluoro-5H-4λ^4, 5λ^4-dipyrrolo[1,2-c:2,1′-f][1,3,2]diazaborinin-10-yl)oxy)-2-azaspiro[3.5]nonane-2-carbonyl)hexahydro-2H-pyrido[4,3-b][1,4]oxazin-3(4H)-one [Example 10]”, for which the IC50 came out at 3.82 nM. The value for “(4aR,8aS)-6-(2-((5,5-difluoro-5H-4λ^4, 5λ^4-dipyrrolo[1,2-c:2,1′-f][1,3,2]diazaborinin-10-yl)oxy)-7-azaspiro[3.5]nonane-7-carbonyl)hexahydro-2H-pyrido[4,3-b][1,4]oxazin-3(4H)-one [Example 12]” was 45 nM; that for `O=C1CO[C@H]2CCN(C(=O)N3CC4(CC(Oc5cc(=O)oc6ccccc56)C4)C3)C[C@H]2N1` [Example 4, (4aR,8aS)-6-(6-((2-oxo-2H-chromen-4-yl)oxy)-2-azaspiro[3.3]heptane-2-carbonyl)hexahydro-2H-pyrido[4,3-b][1,4]oxazin-3(4H)-one] was 298 nM.

Turning to “(4aR,8aS)-6-(4-((5,5-difluoro-5H-4λ^4, 5λ^4-dipyrrolo[1,2-c:2,1′-f][1,3,2]diazaborinin-O-yl)methylene)piperidine-1-carbonyl)hexahydro-2H-pyrido[4,3-b][1,4]oxazin-3(4H)-one [Example 17]”, the IC50 stood at 1680 nM. “2-(6-((5,5-difluoro-5H-4λ^4,5λ^4-dipyrrolo[1,2-c:2′,1′-f][1,3,2]diazaborinin-10-yl)methyl)-2-azaspiro[3.3]heptane-2-carbonyl)-7-oxa-2,5-diazaspiro[3.4]octan-6-one [Example 23]” came in with an IC50 of 1.26 nM. The value for “2-(6-((5,5-difluoro-5H-4λ^4,5λ^4-dipyrrolo[1,2-c:2′,1′-f][1,3,2]diazaborinin-10-yl)oxy)-2-azaspiro[3.3]heptane-2-carbonyl)-7-oxa-2,5-diazaspiro[3.4]octan-6-one [Example 11]” was 1.76 nM. For “(6-(3-cyclopropyl-1H-1,2,4-triazol-1-yl)-2-azaspiro[3.3]heptan-2-yl)(6-((5,5-difluoro-5H-4λ^4,5λ^4-dipyrrolo[1,2-c:2,1′-f][1,3,2]diazaborinin-10-yl)methyl)-2-azaspiro[3.3]heptan-2-yl)methanone [Example 25]”, the IC50 was determined as 0.34 nM.

As to `COc1ccc2c(CN3CCN(C(=O)N4CC[C@@H]5OCC(=O)N[C@@H]5C4)CC3)cc(=O)oc2c1` [Example 5, (4aR,8aS)-6-(4-((7-methoxy-2-oxo-2H-chromen-4-yl)methyl)piperazine-1-carbonyl)hexahydro-2H-pyrido[4,3-b][1,4]oxazin-3(4H)-one], the midpoint of inhibition, the IC50, lay at 3310 nM.

In the case of `O=C1CO[C@H]2CCN(C(=O)N3CCC(Nc4ccc([N+](=O)[O-])c5nonc45)CC3)C[C@H]2N1` [Example 6, (4aR,8aS)-6-(4-((7-nitrobenzo[c][1,2,5]oxadiazol-4-yl)amino)piperidine-1-carbonyl)hexahydro-2H-pyrido[4,3-b][1,4]oxazin-3(4H)-one], the IC50 is 3810 nM. To “(4aR,8aS)-6-(6-((5,5-difluoro-3-phenyl-5H-4λ^4,5λ^4-dipyrrolo[1,2-c:2′,1′-f][1,3,2]diazaborinin-10-yl)methyl)-2-azaspiro[3.3]heptane-2-carbonyl)hexahydro-2H-pyrido[4,3-b][1,4]oxazin-3(4H)-one [Example 29]” belongs 0.66 nM.

Take “2-(6-((5,5-difluoro-5H-4λ^4,5λ^4-dipyrrolo[1,2-c:2′,1′-f][1,3,2]diazaborinin-10-yl)methylene)-2-azaspiro[3.3]heptane-2-carbonyl)-7-oxa-2,5-diazaspiro[3.4]octan-6-one [Example 22]”: the IC50 was determined as 12.6 nM. The value for “(4aR,8aS)-6-(7-((5,5-difluoro-5H-4λ^4, 5λ^4-dipyrrolo[1,2-c:2,1′-f][1,3,2]diazaborinin-10-yl)methyl)-2-azaspiro[3.5]nonane-2-carbonyl)hexahydro-2H-pyrido[4,3-b][1,4]oxazin-3(4H)-one [Example 19]” was 2.35 nM; that for “6-(6-((5,5-difluoro-5H-4λ^4,5λ^4-dipyrrolo[1,2-c:2′,1′-f][1,3,2]diazaborinin-10-yl)methyl)-2-azaspiro[3.3]heptane-2-carbonyl)-2H-benzo[b][1,4]oxazin-3(4H)-one [Example 24]” was 7.5 nM; that for `O=C1COC2CCN(C(=O)N3C[C@@H]4[C@@H](COC5=C6C=CC=[N+]6[B-](F)(F)n6cccc65)[C@@H]4C3)CC2N1` (stereo partly drawn) [Example 14, (4aR,8aS)-6-((1R,5S,6R)-6-(((5,5-difluoro-5H-4λ^4,5λ^4-dipyrrolo[1,2-c:2′,1′-f][1,3,2]diazaborinin-10-yl)oxy)methyl)-3-azabicyclo[3.1.0]hexane-3-carbonyl)hexahydro-2H-pyrido[4,3-b][1,4]oxazin-3(4H)-one] was 500 nM. To `NC(=O)[C@H]1CCN(C(=O)N2CC3(CC(CC4=C5C=CC=[N+]5[B-](F)(F)n5cccc54)C3)C2)C1` [Example 27, (S)-1-(6-((5,5-difluoro-5H-4λ^4,5λ^4-dipyrrolo[1,2-c:2,1′-f][1,3,2]diazaborinin-10-yl)methyl)-2-azaspiro[3.3]heptane-2-carbonyl)pyrrolidine-3-carboxamide] belongs 1.98 nM; to “2-(7-((5,5-difluoro-5H-4λ^4,5λ^4-dipyrrolo[1,2-c:2′,1′-f][1,3,2]diazaborinin-10-yl)methyl)-2-azaspiro[3.5]nonane-2-carbonyl)-7-oxa-2,5-diazaspiro[3.4]octan-6-one [Example 21]”, 0.69 nM; to `O=C(N1CC2(CC(CC3=C4C=CC=[N+]4[B-](F)(F)n4c3ccc4-c3ccc[nH]3)C2)C1)N1CC2(CC(n3cnc(C4CC4)n3)C2)C1` [Example 31, (6-(3-cyclopropyl-1H-1,2,4-triazol-1-yl)-2-azaspiro[3.3]heptan-2-yl)(6-((5,5-difluoro-3-(1H-pyrrol-2-yl)-5H-5λ^4,6λ^4-dipyrrolo[1,2-c:2′,1′-f][1,3,2]diazaborinin-10-yl)methyl)-2-azaspiro[3.3]heptan-2-yl)methanone], 0.59 nM. As for `O=C1CO[C@H]2CCN(C(=O)N3CC4(CC(Oc5ccc6ccc(=O)oc6c5)C4)C3)C[C@H]2N1` [Example 1], 255 nM corresponded to half-maximal inhibition (IC50). This IC50 lies about 430-fold higher than the previous one.

For “(6-((5,5-difluoro-5H-424, 5λ^4-dipyrrolo[1,2-c:2′,1′-f][1,3,2]diazaborinin-10-yl)methyl)-2-azaspiro[3.3]heptan-2-yl)(4-(5-methyloxazolo[4,5-b]pyridin-2-yl)piperazin-1-yl)methanone [Example 26]”, the IC50 is 17.2 nM. Against the preceding molecule, the IC50 is about 15-fold lower. The value for “(4aR,8aS)-6-(6-((5,5-difluoro-5H-4λ^4, 5λ^4-dipyrrolo[1,2-c:2′,1′-f][1,3,2]diazaborinin-10-yl)oxy)-2-azaspiro[3.3]heptane-2-carbonyl)hexahydro-2H-pyrido[4,3-b][1,4]oxazin-3(4H)-one [Example 8]” was 79.3 nM.
